Data published in US11447460B2, “Compounds and compositions for treating conditions associated with NLRP activity” (Novartis AG, priority 2016, dated 2022).

system: IL-1β production in PMA-differentiated THP-1 cells; assay: IL-1β production in PMA-differentiated THP-1 cells stimulated with gramicidin (hTHP-1 assay, 2% bovine serum; Bioassays 1 and 2); type: cell-based, human; conditions: Homo sapiens, THP-1; hTHP-1 assay containing 2% bovine serum; Table 12, by Example #; read-out: Average IC50 of compounds in hTHP-1 assay
Protocol: IL-1β Production in PMA-Differentiated THP-1 Cells Stimulated with Gramicidin.
Cell culture-THP-1 cells were purchased from the American Type Culture Collection and sub-cultured according to instructions from the supplier. Prior to experiments, cells were cultured in RPMI 1640 containing 10% heat inactivated FBS, penicillin (100 units/ml) and streptomycin (100 μg/ml), and maintained in log phase prior to experimental setup. Prior to the experiment THP-1 were treated with PMA (Phorbol 12-myristate 13-acetate) (10 μg/ml) for 24 hours. The day of the experiment the media was removed and attaching cells were treated with trypsin for 2 minutes, cells were then collected, washed with PBS (phosphate buffer saline), spin down, resuspended in 2% heat inactivated FBS with RPMI at a concentration of 1×10^6 cells/ml, and 100 ul was plated in a 96 well plate. Cells were incubated with compounds for 1 hours and then stimulated with Gramicidin (5 μM) (Enzo) for 2 hours. Cell free supernatant was collected and the production of IL-1β was evaluated by ELISA. Compounds were dissolved in dimethyl sulfoxide (DMSO) and added to the culture medium to achieve desired concentration (e.g. 100, 30, 10, 3, 1, 0.3 or 0.1 μM). A vehicle only control was run concurrently with each experiment. Final DMSO concentration was 1%.
THP-1 cells were purchased from the American Type Culture Collection and sub-cultured according to instructions from the supplier. Prior to experiments, cells were cultured in complete RPMI 1640 (containing 10% heat inactivated FBS, penicillin (100 units/ml) and streptomycin (100 μg/ml)), and maintained in log phase prior to experimental setup. Prior to the experiment THP-1 were treated with PMA (Phorbol 12-myristate 13-acetate) (20 ng/ml) for 16-18 hours. On the day of the experiment the media was removed and adherent cells were detached with trypsin for 5 minutes. Cells were then harvested, washed with complete RPMI 1640, spun down, resuspended in RPMI 1640 (containing 2% heat inactivated FBS, penicillin (100 units/ml) and streptomycin (100 μg/ml). The cells were plated in a 384-well plate at a density of 50,000 cells/well (final assay volume 50 μl). Compounds were dissolved in dimethyl sulfoxide (DMSO) and added to the culture medium to achieve desired concentration (e.g. 100, 33, 11, 3.7, 1.2, 0.41, 0.14, 0.046, 0.015, 0.0051, 0.0017 μM). Cells were incubated with compounds for 1 hour and then stimulated with gramicidin (5 μM) (Enzo) for 2 hours. Cell free supernatant was collected and the production of IL-10 was evaluated by HTRF (cisbio). A vehicle only control was run concurrently with each experiment. Final DMSO concentration was 0.38%.
Compounds tested with protocols 1 and 2 provided IC50 values that are within the variability of the assay.
Tables 12 and 13 show the biological activity of compounds in hTHP-1 assay containing 2% bovine serum: <1 μM=“++++”; ≥1 and <5 μM=“+++”; ≥5 and <15 μM=“++”; ≥15 and <60 μM=“+”.

IC50 [µM] | Compound
5 to 15 | CC(C)(O)c1coc(S(=O)(=O)NC(=O)Cc2c3c(cc4c2CCC4)CCC3)c1 [Example 1, 2-(1,2,3,5,6,7-Hexahydros-indacen-4-yl)-N-(4-(2-hydroxypropan-2-yl)furan-2-ylsulfonyl)acetamide]
1 to 5 | CC(C)c1cccc(C(C)C)c1CC(=O)NS(=O)(=O)c1ncc(C(C)(C)O)s1 [Example 2, 2-(2,6-Diisopropylphenyl)-N-(5-(2-hydroxypropan-2-yl)thiazol-2-ylsulfonyl)acetamide]
15 to 60 | CC(C)(O)c1cnc(S(=O)(=O)NC(=O)Cc2c3c(cc4c2CCC4)CCC3)s1 [Example 3, 2-(1,2,3,5,6,7-Hexahydros-indacen-4-yl)-N-(5-(2-hydroxypropan-2-yl)thiazol-2-ylsulfonyl)acetamide]
5 to 15 | CC(C)c1cc(F)cc(C(C)C)c1CC(=O)NS(=O)(=O)c1ncc(C(C)(C)CO)s1 [Example 4, 2-(4-Fluoro-2,6-diisopropylphenyl)-N-(5-(1-hydroxy-2-methylpropan-2-yl)thiazol-2-ylsulfonyl)acetamide]
15 to 60 | CC(C)(O)c1cnc(S(=O)(=O)NC(=O)Cc2c3c(c(Cl)c4c2CCC4)CCC3)s1 [Example 5, 2-(8-Chloro-1,2,3,5,6,7-hexahydros-indacen-4-yl)-N-(5-(2-hydroxypropan-2-yl)thiazol-2-ylsulfonyl)acetamide]
1 to 5 | CC(C)c1cc(C#N)cc(C(C)C)c1CC(=O)NS(=O)(=O)c1ncc(C(C)(C)O)s1 [Example 6, 2-(4-cyano-2,6-diisopropylphenyl)-N-(5-(2-hydroxypropan-2-yl)thiazol-2-ylsulfonyl)acetamide]
< 1 | CC(C)c1cccc(C(C)C)c1CC(=O)NS(=O)(=O)c1cc(C(C)(C)O)cs1 [Example 8, 2-(2,6-diisopropylphenyl)-N-(4-(2-hydroxypropan-2-yl)thiophen-2-ylsulfonyl)acetamide]
< 1 | CC(C)c1cc(F)cc(C(C)C)c1CC(=O)NS(=O)(=O)c1cc(C(C)(C)O)cs1 [Example 9, 2-(4-fluoro-2,6-diisopropylphenyl)-N-(4-(2-hydroxypropan-2-yl)thiophen-2-ylsulfonyl)acetamide]
< 1 | CC(C)c1cc(C#N)cc(C(C)C)c1CC(=O)NS(=O)(=O)c1cc(C(C)(C)O)cs1 [Example 10, 2-(4-cyano-2,6-diisopropylphenyl)-N-(4-(2-hydroxypropan-2-yl)thiophen-2-ylsulfonyl)acetamide]
< 1 | CC(C)c1ccc(F)c(C(C)C)c1CC(=O)NS(=O)(=O)c1cc(C(C)(C)O)cs1 [Example 11, 2-(3-fluoro-2,6-diisopropylphenyl)-N-(4-(2-hydroxypropan-2-yl)thiophen-2-ylsulfonyl)acetamide]
< 1 | CC(C)c1c(F)c(Cl)c(F)c(C(C)C)c1CC(=O)NS(=O)(=O)c1cc(C(C)(C)O)cs1 [Example 12, 2-(4-chloro-3,5-difluoro-2,6-diisopropylphenyl)-N-(4-(2-hydroxypropan-2-yl)thiophen-2-ylsulfonyl)acetamide]
1 to 5 | CC(C)c1cc(F)cc(C(C)C)c1CC(=O)NS(=O)(=O)c1ccc(C(C)(C)O)s1 [Example 13, 2-(4-fluoro-2,6-diisopropylphenyl)-N-(5-(2-hydroxypropan-2-yl)thiophen-2-ylsulfonyl)acetamide]
1 to 5 | CC(C)c1cccc(C(C)C)c1CC(=O)NS(=O)(=O)c1cc(C2(O)CC2)cs1 [Example 14, 2-(2,6-diisopropylphenyl)-N-(4-(1-hydroxycyclopropyl)thiophen-2-ylsulfonyl)acetamide]
1 to 5 | CC(C)c1cc(F)cc(C(C)C)c1CC(=O)NS(=O)(=O)c1cc(C2(O)CC2)cs1 [Example 15, 2-(4-fluoro-2,6-diisopropylphenyl)-N-(4-(1-hydroxycyclopropyl)thiophen-2-ylsulfonyl)acetamide]
< 1 | CC(C)c1cc(C#N)cc(C(C)C)c1CC(=O)NS(=O)(=O)c1cc(C2(O)CC2)cs1 [Example 16, 2-(4-cyano-2,6-diisopropylphenyl)-N-(4-(1-hydroxycyclopropyl)thiophen-2-ylsulfonyl)acetamide]
1 to 5 | Cc1sc(S(=O)(=O)NC(=O)Cc2c(C(C)C)cc(F)cc2C(C)C)cc1C(C)(C)O [Example 17, 2-(4-fluoro-2,6-diisopropylphenyl)-N-(4-(2-hydroxypropan-2-yl)-5-methylthiophen-2-ylsulfonyl)acetamide]
1 to 5 | Cc1oc(S(=O)(=O)NC(=O)Cc2c(C(C)C)cc(F)cc2C(C)C)cc1C(C)(C)O [Example 18, 2-(4-fluoro-2,6-diisopropylphenyl)-N-(4-(2-hydroxypropan-2-yl)-5-methylfuran-2-ylsulfonyl)acetamide]
1 to 5 | Cc1c(C(C)(C)O)csc1S(=O)(=O)NC(=O)Cc1c(C(C)C)cc(F)cc1C(C)C [Example 19, 2-(4-fluoro-2,6-diisopropylphenyl)-N-(4-(2-hydroxypropan-2-yl)-3-methylthiophen-2-ylsulfonyl)acetamide]
< 1 | CC(C)c1c(F)c(Cl)c(F)c(C(C)C)c1CC(=O)NS(=O)(=O)c1cc(C(C)(C)O)co1 [Example 20, 2-(4-chloro-3,5-difluoro-2,6-diisopropylphenyl)-N-(4-(2-hydroxypropan-2-yl)furan-2-ylsulfonyl)acetamide]
1 to 5 | CC(C)c1cccc(C(C)C)c1CC(=O)NS(=O)(=O)c1ccc(C(C)(C)O)cc1 [Example 21, 2-(2,6-diisopropylphenyl)-N-(4-(2-hydroxypropan-2-yl)phenylsulfonyl)acetamide]
15 to 60 | CC(C)c1cccc(C(C)C)c1CC(=O)NS(=O)(=O)c1cc(-c2ccncc2)cc(C(C)(C)O)c1 [Example 22, 2-(2,6-diisopropylphenyl)-N-(3-(2-hydroxypropan-2-yl)-5-(pyridin-4-yl)phenylsulfonyl)acetamide]
1 to 5 | CC(C)c1cccc(C(C)C)c1CC(=O)NS(=O)(=O)c1cc(-c2ccccc2)cc(C(C)(C)O)c1 [Example 23, 2-(2,6-diisopropylphenyl)-N-(5-(2-hydroxypropan-2-yl)biphenyl-3-ylsulfonyl)acetamide]
15 to 60 | CC(C)c1cccc(C(C)C)c1CC(=O)NS(=O)(=O)c1cc(C(C)(C)O)cc(C(C)(C)O)c1 [Example 24, N-(3,5-bis(2-hydroxypropan-2-yl)phenylsulfonyl)-2-(2,6-diisopropylphenyl)acetamide]
1 to 5 | CC(C)c1cc(F)cc(C(C)C)c1CC(=O)NS(=O)(=O)c1cccc(C(C)(C)O)c1 [Example 25, 2-(4-fluoro-2,6-diisopropylphenyl)-N-(3-(2-hydroxypropan-2-yl)phenylsulfonyl)acetamide]
1 to 5 | CC(C)c1cc(C#N)cc(C(C)C)c1CC(=O)NS(=O)(=O)c1cccc(C(C)(C)O)c1 [Example 26, 2-(4-cyano-2,6-diisopropylphenyl)-N-(3-(2-hydroxypropan-2-yl)phenylsulfonyl)acetamide]
1 to 5 | CC(C)c1cc(F)cc(C(C)C)c1CC(=O)NS(=O)(=O)c1cc(Cl)cc(C(C)(C)O)c1 [Example 27, N-(3-chloro-5-(2-hydroxypropan-2-yl)phenylsulfonyl)-2-(4-fluoro-2,6-diisopropylphenyl)acetamide]

same assay, conditions: Homo sapiens, THP-1; hTHP-1 assay containing 2% bovine serum; Table 13, by Final Target Number; read-out: Average IC50 of compounds in hTHP-1 assay

IC50 [µM] | Compound
5 to 15 | CC(C)c1cc(F)cc(C(C)C)c1CC(=O)NS(=O)(=O)c1ncc(CN(C)C)s1 [Compound 213]
< 1 | CC(C)c1cc(F)cc(C(C)C)c1CC(=O)NS(=O)(=O)c1ccc(CN(C)C)cc1 [Compound 214]
5 to 15 | CC(C)c1cc(F)cc(C(C)C)c1CC(=O)NS(=O)(=O)c1cccc(CN(C)C)c1 [Compound 215]

same assay, conditions: hTHP-1 assay containing 2% bovine serum; Table 12, by Example #; read-out: Average IC50 of compounds in hTHP-1 assay

IC50 [µM] | Compound
5 to 15 | CC(C)(O)c1csc(S(=O)(=O)NC(=O)Cc2c3c(cc4c2CCC4)CCC3)c1 [Example 7, 2-(1,2,3,5,6,7-hexahydro-sindacen-4-yl)-N-(4-(2-hydroxypropan-2-yl)thiophen-2-ylsulfonyl)acetamide]
